This passage reports inhibition, IC50 and inhibition % results from publication PMC6832352, “Synthesis and Glycosidase Inhibition of Broussonetine M and Its Analogues” (Molecules, 2019).

Structures are written as SMILES.

Holding throughout (assay type): biochemical
Experiment [1] deals with T1, α-Glucosidase (Saccharomyces cerevisiae, UniProt P53341).
T1 construct: purchased Sigma-Aldrich Chemical Co
As to the kind of experiment: glycosidase inhibition assay, yeast α-glucosidase. The conditions noted are these: for IC50: α-Glucosidase, Yeast. As to the method:
(§1) With rat intestinal maltase as an exception, other enzymes were purchased from Sigma-Aldrich Chemical Co. (St. Louis, Mo. USA). Brush border membranes prepared from rat small intestine according to the method of Kessler et al. were assayed at pH 6.8 for rat intestinal maltase using maltose. The released D-glucose was determined colorimetrically using the Glucose CII-test Wako (Wako Pure Chemical Ind.; Osaka, Japan). Other glycosidase activities were determined using an appropriate p-nitrophenyl glycoside as substrate in a buffer solution at the optimal pH value of each enzyme. The reaction was stopped by adding 400 mM Na2CO3. The released p-nitrophenol was measured spectrometrically at 400 nm.

Experiment [2] concerns the target T2, α-Glucosidase (Oryza sativa subsp. japonica, UniProt Q653V7).
T2 construct: purchased Sigma-Aldrich Chemical Co
As to the kind of experiment: glycosidase inhibition assay, rice α-glucosidase. The conditions noted are these: for inhibition at 100 µM: α-Glucosidase, Rice. As to the method: as §1

Another experiment concerns the target Rat intestinal maltase. In words: rat intestinal maltase inhibition (brush border membranes, maltose). The note with it: for inhibition %: at 100 μM. As to the method:
as §1

The target of a further experiment is β-Glucosidase. In words: glycosidase inhibition assay, almond β-glucosidase. The conditions noted are these: for inhibition %: at 100 μM. As to the method: as §1
The target in the next experiment is β-Galactosidase. As to the kind of experiment: glycosidase inhibition assay, bovine liver β-galactosidase. As to the method: as §1
The target in a further experiment is T3, α-Mannosidase (Canavalia ensiformis, UniProt C0HJB3).
T3 construct: purchased Sigma-Aldrich Chemical Co
T3 sequence (C0HJB3 1-981): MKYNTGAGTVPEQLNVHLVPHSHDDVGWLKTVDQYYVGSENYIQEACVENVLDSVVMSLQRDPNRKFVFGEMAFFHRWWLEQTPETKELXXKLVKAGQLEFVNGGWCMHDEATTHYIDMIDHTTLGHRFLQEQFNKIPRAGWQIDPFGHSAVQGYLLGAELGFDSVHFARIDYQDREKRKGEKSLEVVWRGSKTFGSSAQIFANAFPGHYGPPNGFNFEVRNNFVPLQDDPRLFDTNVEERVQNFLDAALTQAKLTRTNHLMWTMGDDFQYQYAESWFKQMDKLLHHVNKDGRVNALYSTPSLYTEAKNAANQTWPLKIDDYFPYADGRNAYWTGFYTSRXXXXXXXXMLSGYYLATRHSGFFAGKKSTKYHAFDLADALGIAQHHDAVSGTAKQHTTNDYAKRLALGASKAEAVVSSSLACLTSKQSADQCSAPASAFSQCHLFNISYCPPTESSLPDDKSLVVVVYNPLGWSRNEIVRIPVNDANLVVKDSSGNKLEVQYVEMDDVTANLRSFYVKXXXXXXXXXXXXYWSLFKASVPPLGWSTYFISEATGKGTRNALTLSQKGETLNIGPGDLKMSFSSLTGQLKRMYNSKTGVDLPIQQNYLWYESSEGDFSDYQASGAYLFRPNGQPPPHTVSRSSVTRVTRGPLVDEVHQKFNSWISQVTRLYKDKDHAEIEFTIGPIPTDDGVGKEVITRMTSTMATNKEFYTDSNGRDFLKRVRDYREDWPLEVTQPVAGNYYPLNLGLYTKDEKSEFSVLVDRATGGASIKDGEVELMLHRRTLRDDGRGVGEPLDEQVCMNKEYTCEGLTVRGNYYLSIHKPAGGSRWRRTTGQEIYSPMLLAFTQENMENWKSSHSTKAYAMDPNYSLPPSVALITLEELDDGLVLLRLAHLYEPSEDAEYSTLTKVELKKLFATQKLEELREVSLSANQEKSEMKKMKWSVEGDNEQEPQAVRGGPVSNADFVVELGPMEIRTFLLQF
As to the kind of experiment: glycosidase inhibition assay, jack bean α-mannosidase. As to the method:
as §1

The target of another experiment is β-Mannosidase. As to the kind of experiment: glycosidase inhibition assay, snail β-mannosidase. The note with it: for inhibition %: at 100 μM. As to the method:
as §1

For another experiment, the target named is T4, α-L-Fucosidase (Bos taurus, UniProt Q2KIM0).
T4 construct: purchased Sigma-Aldrich Chemical Co; host or cells: bovine kidney
T4 sequence (Q2KIM0 23-468): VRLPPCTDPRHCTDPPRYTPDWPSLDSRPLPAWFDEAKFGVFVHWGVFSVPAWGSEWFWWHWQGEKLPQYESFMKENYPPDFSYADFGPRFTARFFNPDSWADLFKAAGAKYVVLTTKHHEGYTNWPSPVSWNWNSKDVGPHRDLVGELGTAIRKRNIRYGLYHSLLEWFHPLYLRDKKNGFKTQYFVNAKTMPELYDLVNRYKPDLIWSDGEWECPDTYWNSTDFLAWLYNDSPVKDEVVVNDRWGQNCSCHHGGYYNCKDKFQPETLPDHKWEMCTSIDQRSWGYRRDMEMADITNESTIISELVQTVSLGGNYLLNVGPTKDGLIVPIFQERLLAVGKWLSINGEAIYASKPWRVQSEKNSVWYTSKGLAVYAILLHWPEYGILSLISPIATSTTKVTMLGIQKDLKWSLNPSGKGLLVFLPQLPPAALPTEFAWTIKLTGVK
In words: glycosidase inhibition assay, bovine kidney α-L-fucosidase. As to the method:
as §1

For a further experiment, the target named is T5, Amyloglucosidase (Aspergillus niger, UniProt P69328).
T5 construct: purchased Sigma-Aldrich Chemical Co
As to the kind of experiment: glycosidase inhibition assay, A. niger amyloglucosidase. As to the method: as §1

In the next experiment the target is T6, β-Glucuronidase (Escherichia coli, UniProt P05804).
T6 construct: purchased Sigma-Aldrich Chemical Co
In words: glycosidase inhibition assay, E. coli β-glucuronidase. As to the method: as §1

T6 sequence (P05804 whole entry): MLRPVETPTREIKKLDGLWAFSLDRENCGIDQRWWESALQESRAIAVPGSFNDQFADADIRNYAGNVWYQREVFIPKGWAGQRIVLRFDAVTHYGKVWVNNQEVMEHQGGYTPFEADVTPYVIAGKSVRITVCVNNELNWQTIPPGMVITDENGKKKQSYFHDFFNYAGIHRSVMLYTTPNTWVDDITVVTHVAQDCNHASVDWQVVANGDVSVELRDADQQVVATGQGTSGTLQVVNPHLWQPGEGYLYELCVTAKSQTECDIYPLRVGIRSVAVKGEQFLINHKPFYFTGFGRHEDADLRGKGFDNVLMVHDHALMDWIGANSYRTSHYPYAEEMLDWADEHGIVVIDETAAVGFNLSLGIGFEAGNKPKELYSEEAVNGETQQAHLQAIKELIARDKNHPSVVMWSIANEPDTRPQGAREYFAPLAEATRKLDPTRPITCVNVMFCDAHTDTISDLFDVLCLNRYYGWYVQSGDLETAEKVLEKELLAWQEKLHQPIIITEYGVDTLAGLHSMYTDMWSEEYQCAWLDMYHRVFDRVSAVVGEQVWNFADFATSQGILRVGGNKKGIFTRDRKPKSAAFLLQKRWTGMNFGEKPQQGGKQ
T2 sequence (Q653V7 34-885): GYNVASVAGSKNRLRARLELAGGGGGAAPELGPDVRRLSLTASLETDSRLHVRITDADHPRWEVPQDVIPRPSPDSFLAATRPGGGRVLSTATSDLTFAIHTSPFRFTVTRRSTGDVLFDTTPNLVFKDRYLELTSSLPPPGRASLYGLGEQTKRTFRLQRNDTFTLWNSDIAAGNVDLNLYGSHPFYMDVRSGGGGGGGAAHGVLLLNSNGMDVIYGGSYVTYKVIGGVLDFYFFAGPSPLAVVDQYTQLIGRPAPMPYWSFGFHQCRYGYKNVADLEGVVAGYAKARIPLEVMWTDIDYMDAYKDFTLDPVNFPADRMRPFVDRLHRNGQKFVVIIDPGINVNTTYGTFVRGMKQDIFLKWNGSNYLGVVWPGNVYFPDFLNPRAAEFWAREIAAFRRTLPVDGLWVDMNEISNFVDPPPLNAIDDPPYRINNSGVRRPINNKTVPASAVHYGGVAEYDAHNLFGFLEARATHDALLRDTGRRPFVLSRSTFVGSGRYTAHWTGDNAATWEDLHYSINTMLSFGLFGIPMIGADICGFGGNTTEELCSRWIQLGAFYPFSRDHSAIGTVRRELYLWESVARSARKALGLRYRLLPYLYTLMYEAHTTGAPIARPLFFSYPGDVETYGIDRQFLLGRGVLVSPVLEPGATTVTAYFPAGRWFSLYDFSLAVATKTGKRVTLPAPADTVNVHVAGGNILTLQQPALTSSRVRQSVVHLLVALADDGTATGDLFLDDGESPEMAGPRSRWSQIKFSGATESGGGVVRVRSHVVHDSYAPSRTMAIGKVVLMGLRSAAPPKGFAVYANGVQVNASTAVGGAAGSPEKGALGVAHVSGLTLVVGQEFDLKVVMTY
T1 sequence (P53341 whole entry): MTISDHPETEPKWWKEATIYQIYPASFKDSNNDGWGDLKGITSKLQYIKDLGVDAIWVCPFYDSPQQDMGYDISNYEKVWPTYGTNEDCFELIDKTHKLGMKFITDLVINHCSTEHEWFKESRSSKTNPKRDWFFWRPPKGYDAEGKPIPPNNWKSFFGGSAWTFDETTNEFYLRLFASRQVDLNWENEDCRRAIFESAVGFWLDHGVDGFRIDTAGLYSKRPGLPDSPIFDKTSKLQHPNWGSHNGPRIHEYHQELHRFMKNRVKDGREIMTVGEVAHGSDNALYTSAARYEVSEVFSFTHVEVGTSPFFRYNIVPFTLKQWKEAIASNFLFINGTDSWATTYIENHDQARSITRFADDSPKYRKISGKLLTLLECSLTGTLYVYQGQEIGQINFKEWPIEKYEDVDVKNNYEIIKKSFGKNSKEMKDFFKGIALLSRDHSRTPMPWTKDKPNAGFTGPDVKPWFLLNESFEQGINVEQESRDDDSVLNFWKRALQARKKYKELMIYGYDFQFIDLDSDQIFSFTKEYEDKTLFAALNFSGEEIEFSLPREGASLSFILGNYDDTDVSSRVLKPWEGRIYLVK
T5 sequence (P69328 25-640): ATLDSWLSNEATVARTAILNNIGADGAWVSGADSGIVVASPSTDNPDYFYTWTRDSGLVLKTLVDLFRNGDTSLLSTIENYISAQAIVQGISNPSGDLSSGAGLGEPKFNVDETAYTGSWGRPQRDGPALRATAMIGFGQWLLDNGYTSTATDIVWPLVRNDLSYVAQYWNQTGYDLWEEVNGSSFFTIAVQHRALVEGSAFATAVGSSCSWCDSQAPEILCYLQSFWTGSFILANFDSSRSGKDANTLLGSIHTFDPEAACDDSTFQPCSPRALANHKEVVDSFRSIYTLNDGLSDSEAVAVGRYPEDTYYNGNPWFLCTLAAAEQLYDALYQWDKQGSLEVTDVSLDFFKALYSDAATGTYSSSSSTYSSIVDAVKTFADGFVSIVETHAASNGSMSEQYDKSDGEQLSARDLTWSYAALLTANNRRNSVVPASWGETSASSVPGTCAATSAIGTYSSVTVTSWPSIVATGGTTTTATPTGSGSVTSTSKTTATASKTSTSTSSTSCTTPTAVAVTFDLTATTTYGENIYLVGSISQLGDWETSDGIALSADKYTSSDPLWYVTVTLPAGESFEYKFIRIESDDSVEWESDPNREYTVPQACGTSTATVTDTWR

For orientation: inhibition means the relative decrease from the control value, in per cent. A word on the IC50: it is the concentration that gives 50% inhibition. Higher therefore signals lower potency. Turning to `OCCCC(O)CCCCCCCCCC1NC(CO)C(O)C1O` [2,10-di-epi-3, (2S,3R,4R,5R)-2-hydroxymethyl-3,4-dihydroxyl-5-((10S)-10,13-(dihydroxyl)dec-1-yl) pyrrolidine], the inhibition at 100 µM on α-Glucosidase [1] is 3.2%; against α-Mannosidase it was 0.32%; at α-L-Fucosidase it was 10.8%; against Amyloglucosidase, 6.8%. Besides, the half-inhibitory concentration (IC50) on α-Glucosidase [1] is above 100 µM; against α-Glucosidase [2], 12 µM; at Rat intestinal maltase, 1.4 µM; on β-Glucosidase, above 100 µM; against β-Galactosidase it was 13 µM; against α-Mannosidase, above 100 µM. In addition, the half-inhibitory concentration (IC50) was above 100 µM at β-Mannosidase, above 100 µM on α-L-Fucosidase, above 100 µM on Amyloglucosidase and 80 µM against β-Glucuronidase. The inhibition % in the experiment on β-Glucosidase is reported as 10.9%; in the experiment with β-Mannosidase it was 0%.
Turning to `OCCC[C@@H](O)CCCCCCCCC[C@H]1N[C@@H](CO)[C@@H](O)[C@@H]1O` [2-epi-3, (2S,3R,4R,5R)-2-hydroxymethyl-3,4-dihydroxyl-5-((10R)-10,13-(dihydroxyl)dec-1-yl) pyrrolidine], the inhibition at 100 µM at α-Glucosidase [1] was determined as 1.6%; on α-Glucosidase [2], 5.6%; against α-Mannosidase it was 0%; at α-L-Fucosidase, 4.3%; against Amyloglucosidase, 3.8%. For the same compound, the IC50 is above 100 µM at α-Glucosidase [1]; above 100 µM against α-Glucosidase [2]; above 100 µM against Rat intestinal maltase; above 100 µM against β-Glucosidase; 7.4 µM on β-Galactosidase; above 100 µM at α-Mannosidase. Besides, the IC50 at β-Mannosidase is above 100 µM; at α-L-Fucosidase, above 100 µM; against Amyloglucosidase, above 100 µM; against β-Glucuronidase, 73 µM. Moreover, the inhibition % with Rat intestinal maltase came to 16.8%; in the experiment on β-Glucosidase, 8.6%; with β-Mannosidase it was 0%.
In the case of `OCCC[C@H](O)CCCCCCCCC[C@H]1N[C@H](CO)[C@@H](O)[C@@H]1O` [10’-epi-3, (2R,3R,4R,5R)-2-hydroxymethyl-3,4-dihydroxyl-5-((10S)-10,13-(dihydroxyl)dec-1-yl) pyrrolidine], the inhibition at 100 µM at α-Glucosidase [1] turned out to be 4.6%; against α-Glucosidase [2], 0%; against α-Mannosidase, 0%; against α-L-Fucosidase, 0%; at Amyloglucosidase, 36.5%. Also, the IC50 on α-Glucosidase [1] is above 100 µM; against α-Glucosidase [2], above 100 µM; on Rat intestinal maltase, above 100 µM; on β-Glucosidase, above 100 µM; at β-Galactosidase, 0.2 µM; at α-Mannosidase, above 100 µM. The IC50 at β-Mannosidase is above 100 µM; at α-L-Fucosidase it was above 100 µM; against Amyloglucosidase it was above 100 µM; against β-Glucuronidase it was 20 µM. Further, the inhibition % in the experiment with Rat intestinal maltase is given as 26.4%; in the experiment on β-Glucosidase, 29.1%; in the experiment on β-Mannosidase, 0%.
On to `OCCC[C@@H](O)CCCCCCCCC[C@H]1N[C@H](CO)[C@@H](O)[C@@H]1O` [compound 3, (2R,3R,4R,5R)-2-hydroxymethyl-3,4-dihydroxyl-5-((10R)-10,13-(dihydroxyl)dec-1-yl)pyrrolidine], for which the inhibition at 100 µM is 2.6% at α-Glucosidase [1]; 0% against α-Glucosidase [2]; 2.5% on α-Mannosidase; 0% against α-L-Fucosidase; 3.8% against Amyloglucosidase. Besides, the IC50 is above 100 µM against α-Glucosidase [1]; above 100 µM against α-Glucosidase [2]; above 100 µM against Rat intestinal maltase; above 100 µM at β-Glucosidase; 2.3 µM against β-Galactosidase; above 100 µM against α-Mannosidase. The IC50 against β-Mannosidase is above 100 µM; at α-L-Fucosidase, above 100 µM; on Amyloglucosidase, above 100 µM; at β-Glucuronidase, 86 µM. Moreover, the inhibition % with Rat intestinal maltase was determined as 0%; in the experiment on β-Glucosidase, 10.0%; in the experiment on β-Mannosidase, 1.7%.
With `OCCC[C@@H](O)CCCCCCCCC[C@@H]1N[C@@H](CO)[C@@H](O)[C@H]1O` [ent-3,10-di-epi-3], the inhibition at 100 µM was 6.6% on α-Glucosidase [1], 9.5% against α-Glucosidase [2], 0% against α-Mannosidase and 0% against Amyloglucosidase. The IC50 was above 100 µM on α-Glucosidase [1]; above 100 µM on α-Glucosidase [2]; 84 µM on Rat intestinal maltase; above 100 µM against β-Glucosidase; 31 µM against β-Galactosidase; above 100 µM against α-Mannosidase. For the same compound, the IC50 at β-Mannosidase was above 100 µM; at α-L-Fucosidase it was 98 µM; on Amyloglucosidase, above 100 µM; at β-Glucuronidase, 42 µM. Also, the inhibition % in the experiment on β-Glucosidase is on record as 7.3%; in the experiment with β-Mannosidase it was 2.3%.
In the case of `OCCC[C@H](O)CCCCCCCCC[C@@H]1N[C@@H](CO)[C@H](O)[C@H]1O` [ent-3, (2S,3S,4S,5S)-2-hydroxymethyl-3,4-dihydroxyl-5-((10S)-10,13-(dihydroxyl)dec-1-yl) pyrrolidine], the inhibition at 100 µM against α-Glucosidase [1] was determined as 1.9%; against α-Mannosidase, 2.2%; on α-L-Fucosidase it was 0%; on Amyloglucosidase, 0%; against β-Glucuronidase it was 44.3%. Also, the IC50 was above 100 µM against α-Glucosidase [1]; 1.2 µM at α-Glucosidase [2]; 0.29 µM against Rat intestinal maltase; above 100 µM against β-Glucosidase; 50 µM against β-Galactosidase; above 100 µM at α-Mannosidase. For the same compound, the half-inhibitory concentration (IC50) against β-Mannosidase, against α-L-Fucosidase, at Amyloglucosidase and at β-Glucuronidase was above 100 µM throughout. Also, the results for the inhibition % with β-Glucosidase and with β-Mannosidase were 9.6% and 0%, respectively.
On to `OCCC[C@@H](O)CCCCCCCCC[C@@H]1N[C@@H](CO)[C@H](O)[C@H]1O` [ent-10’-epi-3], for which the inhibition at 100 µM on α-Glucosidase [1] worked out at 1.9%; against α-Mannosidase it was 1.8%; on α-L-Fucosidase, 6.1%; against Amyloglucosidase it was 6.1%; against β-Glucuronidase, 36.2%. Also, the IC50 is above 100 µM on α-Glucosidase [1]; 1.3 µM against α-Glucosidase [2]; above 100 µM at β-Glucosidase; 9 µM on β-Galactosidase; above 100 µM at α-Mannosidase; above 100 µM against β-Mannosidase. Further, the IC50 on α-L-Fucosidase, on Amyloglucosidase and against β-Glucuronidase was above 100 µM each time. Further, the inhibition % with β-Glucosidase is on record as 8.0%; with β-Mannosidase it was 2.0%.
